Values quoted from earlier work as cited in patent US20020095197A1, “Application of photochemotherapy for the treatment of cardiac arrhythmias” (priority 2000, published 2002).

Tested on: vascular wall (adventitia, media, intima)
Conditions: photochemotherapy with Photofrin applied; literature report (Gonschior et al. 1997)

porfimer sodium [Photofrin]
inflammatory cells in vessel wall layers following vascular trauma: presence of inflammatory cells in the adventitia (outermost layers), but not in the media or intima
